Legend:
blood glucose level = experiment: Hypoglycemic activity in hyperglycemic KK mice (blood glucose level); format: in vivo, male mice of the KK strain; settings: 1 mg/kg oral, 18 hours, vs solvent-only group
Description: The test animals used were hyperglycemic male mice of the KK strain, each having a body weight of at least 40 g. The compounds under test were mixed with a 1:1 by volume mixture of polyethylene glycol 400 and water. Each animal was orally administered a test compound in the amount shown in the following Table 6 and then allowed to feed freely for 18 hours. At the end of this time, blood was collected from the tail veins without anesthesia. The blood glucose level (BGL) was determined by means of a glucose analyzer (GL-101, manufactured by Mitsubishi Kasei Co. or a Glucoroder-F manufactured by Shino Test Co.). The hypoglycemic effect was calculated by the following equation: Hypoglycemic effect (%)=[(BGLs -BGLt)/BGLs ]×100 where: BGLs is the blood glucose level in the group administered a solvent only, but no active compound; and BGLt is the blood glucose level in the group administered a test compound. The results are shown in the following Table 6, in which each compound of the present invention is identified by the number of one of the following Examples in which its preparation is illustrated.

[1] = target: T1, Bovine lens aldose reductase (Bos taurus, UniProt P16116); experiment: Inhibition of Aldose reductase; format: biochemical; settings: for inhibition at 5 µg/mL: read-out: Inhibition (%) at 5 μg/ml
T1 construct: Bovine lens aldose reductase was separated and partially purified; from tissue; host or cells: bovine lens
Description: Bovine lens aldose reductase was separated and partially purified by the method of S. Hyman and J. H. Kinoshita [J. Biol. Chem. 240, 877 (1965)] and K. Inagaki, I. Miwa and J. Okuda [Arch. Biochem. Biophys., 216, 337 (1982)], and its activity was determined photometrically by the method of Varma et al. [Biochem. Pharmac., 25, 2505 (1976)]. Inhibition of enzyme activity was measured for the compounds of the present invention at a concentration of 5 μg/ml, and the measured values were used to calculate the IC50 values.

`Cc1c(O)c(C)c2nc(COc3ccc(CC4SC(=O)NC4=O)cc3)n(C)c2c1C.Cl` (centres unmarked) [Example 4, 5-[4-(5-Hydroxy-1,4,6,7-tetramethylbenzimidazol-2-ylmethoxy)benzyl]thiazolidine-2,4-dione hydrochloride] was tested, and the “Hypoglycemic effect (%)” value (blood glucose level) was 19.3%.

`Cn1c(COc2ccc(CC3SC(=O)NC3=O)cc2)nc2ccccc21` (centres unmarked) [Example 1, 5-[4-(1-Methylbenzimidazol-2-ylmethoxy)benzyl]thiazolidine-2,4-dione] was tested, and the IC50 [1] was 2.1 µM, the inhibition at 5 µg/mL [1] was 80.3% and the “Hypoglycemic effect (%)” value (blood glucose level) was 36.2%.

For `COc1ccc2nc(COc3ccc(CC4SC(=O)NC4=O)cc3)n(C)c2c1` (centres unmarked) [Example 2, 5-[4-(6-Methoxy-1-methylbenzimidazol-2-ylmethoxy)benzyl]thiazolidine-2,4-dione], the “Hypoglycemic effect (%)” value (blood glucose level) was 27.2%.

For `Cc1c(O)c(C)c2nc(COc3ccc(CC4SC(=O)NC4=O)cc3)n(C)c2c1C` (centres unmarked) [Example 3, 5-[4-(5-Hydroxy-1,4,6,7-tetramethylbenzimidazol-2-ylmethoxy)benzyl]thiazolidine-2,4-dione], the IC50 [1] was 3.29 µM, the inhibition at 5 µg/mL [1] was 79.6% and the “Hypoglycemic effect (%)” value (blood glucose level) was 11.2%.
